pIC50: −log10 of the molar value.
Legend:
Plasmodium falciparum [1] = test: Antimalarial activity against Plasmodium falciparum Dd2; format: functional, organism-based
[2] = target: T1, 1-deoxy-D-xylulose 5-phosphate reductoisomerase (Escherichia coli K-12, UniProt P45568); test: Inhibition of recombinant Escherichia coli DXR
T1 sequence (P45568 whole entry): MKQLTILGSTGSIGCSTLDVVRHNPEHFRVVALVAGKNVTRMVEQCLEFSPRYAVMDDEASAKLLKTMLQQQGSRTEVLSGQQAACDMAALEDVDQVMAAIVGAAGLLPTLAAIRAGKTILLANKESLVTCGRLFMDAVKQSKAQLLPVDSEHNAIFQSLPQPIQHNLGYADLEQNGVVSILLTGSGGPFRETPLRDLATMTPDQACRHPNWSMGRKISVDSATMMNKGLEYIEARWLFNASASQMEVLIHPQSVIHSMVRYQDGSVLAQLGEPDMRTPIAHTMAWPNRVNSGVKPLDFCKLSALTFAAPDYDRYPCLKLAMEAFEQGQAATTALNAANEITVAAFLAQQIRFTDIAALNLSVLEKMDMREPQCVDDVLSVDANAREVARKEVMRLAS

Plasmodium falciparum [3] = test: Antimalarial activity against Plasmodium falciparum 3D7; format: functional, organism-based

Compound	pIC50 (Plasmodium falciparum [1])	pIC50 [2]	pIC50 (Plasmodium falciparum [3])
CC(=O)N(O)CCC(c1ccc(C)cc1)P(=O)(O)O (stereo not given)	6.66	6.40	6.02
COc1ccc(C(CCN(O)C=O)P(=O)(O)O)cc1 (stereo not given)	6.70	6.81	6.44
O=CN(O)CCCP(=O)(O)O [FOSMIDOMYCIN]	6.44		5.96
CC(=O)N(O)CCCP(=O)(O)O [FR-900098]	6.74	7.52	6.49

The remaining molecules from weak to strong by pIC50 (Plasmodium falciparum [1]), led by results:

pIC50 (Plasmodium falciparum [1])	pIC50 [2]	pIC50 (Plasmodium falciparum [3])	Compound
6.46		6.26	CC(=O)N(O)CCC(c1ccccc1)P(=O)(O)O (stereo not given)
6.57	6.34	6.07	COc1ccc(C(CCN(O)C(C)=O)P(=O)(O)O)cc1 (stereo not given)
7.02	7.00	6.46	CC(=O)N(O)CCC(c1ccc(Cl)cc1)P(=O)(O)O (stereo not given)
7.05	6.92	6.60	CC(=O)N(O)CCC(c1ccc(Cl)c(Cl)c1)P(=O)(O)O (stereo not given)
7.55	7.23	7.05	O=CN(O)CCC(c1ccc(Cl)c(Cl)c1)P(=O)(O)O (stereo not given)

From ChEMBL document CHEMBL1146140 (Bioorg Med Chem Lett, 2006)
